The text below walks through data of PMC10254897, “Development and Validation of a New LC-MS/MS Bioanalytical Method for the Simultaneous Determination of Levodopa, Levodopa Methyl Ester, and Carbidopa in Human Plasma Samples” (Molecules, 2023).

The nature of this data set: Short-term, medium-term and autosampler stability in plasma samples and extracts. To be noted: for Stability in plasma samples at −40 °C (time stable): tested 2 weeks, 1 and 2 months. Type of data set: physicochemical, human. The protocol:
Sample stability was measured at two concentration levels (LQC and HQC) in triplicate. Long-term stability was evaluated at −40 °C for 2 weeks, 1 and 2 months; short-term stability was evaluated at room temperature (rt) under light exposure and with light protection and at 4 °C (light protection) for 1, 2, 3, 4, and 7 days. Autosampler stability was also assessed by storing extracts in the autosampler compartment at 10 °C for 1, 2, 3, 4, and 7 days.
The mean concentration values obtained from each measurement were compared to the concentrations measured at T0 before storage. Stability data are expressed as percentual difference from T0.

Where [1] appears, read: plasma samples stored at −40 °C.

With `C[C@@](Cc1ccc(O)c(O)c1)(NN)C(=O)O` [Carbidopa, carbidopa], the “Stability in plasma samples at −40 °C (time stable)” value under setting [1] was “up to 1 months”.

Turning to `N[C@@H](Cc1ccc(O)c(O)c1)C(=O)O` [L-DOPA, Levodopa], the “Stability in plasma samples at −40 °C (time stable)” value under setting [1] is on record as “up to 2 months”.

With `COC(=O)C(N)Cc1ccc(O)c(O)c1` (stereo not shown) [LDME, levodopa methyl ester], the “Stability in plasma samples at −40 °C (in words)” value under setting [1] is recorded as “not satisfactory”.

Turning to `NC(CO)C(=O)NNCc1ccc(O)c(O)c1O` (stereo not shown) [benserazide], the “Stability of the compound (in words)” value (method development, conditions not stated) was “severe stability issues”.
